In the NIST ThermoML archive (doi:10.1016/j.jct.2011.12.008):
± gives the expanded uncertainty stated by the source.

How the values were obtained:
[1] = xn = mol fraction of the nth substance listed; details: 101 kPa, Liquid; for viscosity: Capillary tube (Ostwald / Ubbelohde) method; for mass density: Vibrating tube method
[2] = 101.33 kPa, Liquid; for viscosity: Capillary tube (Ostwald / Ubbelohde) method; for mass density: Vibrating tube method

Compound	viscosity ([2]; 293.15 K)	mass density ([2]; 293.15 K)	viscosity ([2]; 298.15 K)	mass density ([2]; 298.15 K)	viscosity ([2]; 303.15 K)	mass density ([2]; 303.15 K)	viscosity ([2]; 308.15 K)	mass density ([2]; 308.15 K)	viscosity ([2]; 313.15 K)	mass density ([2]; 313.15 K)	viscosity ([2]; 318.15 K)	mass density ([2]; 318.15 K)	viscosity ([2]; 323.15 K)	mass density ([2]; 323.15 K)	viscosity ([2]; 328.15 K)	mass density ([2]; 328.15 K)	viscosity ([2]; 333.15 K)	mass density ([2]; 333.15 K)	viscosity ([2]; 338.15 K)	mass density ([2]; 338.15 K)	other results
CCCCCCn1cc[n+](C)c1.F[B-](F)(F)F [1-hexyl-3-methylimidazolium tetrafluoroborate] + NCCCO																					viscosity ([1]; 293.15 K, x1 = 1): 234.68 ± 11 mPa·s; mass density ([1]; 293.15 K, x1 = 1): 1149.05 ± 1.1 kg/m3; viscosity ([1]; 298.15 K, x1 = 1): 178.92 ± 8.4 mPa·s; mass density ([1]; 298.15 K, x1 = 1): 1145.61 ± 1.1 kg/m3; viscosity ([1]; 303.15 K, x1 = 1): 136.15 ± 6.2 mPa·s; mass density ([1]; 303.15 K, x1 = 1): 1142.3 ± 1.1 kg/m3; viscosity ([1]; 308.15 K, x1 = 1): 106.65 ± 4.7 mPa·s; mass density ([1]; 308.15 K, x1 = 1): 1138.95 ± 1.1 kg/m3; viscosity ([1]; 313.15 K, x1 = 1): 83.13 ± 3.6 mPa·s; mass density ([1]; 313.15 K, x1 = 1): 1135.59 ± 1.1 kg/m3; viscosity ([1]; 318.15 K, x1 = 1): 69.13 ± 2.9 mPa·s; mass density ([1]; 318.15 K, x1 = 1): 1132.22 ± 1.1 kg/m3; viscosity ([1]; 323.15 K, x1 = 1): 56.74 ± 2.4 mPa·s; mass density ([1]; 323.15 K, x1 = 1): 1128.88 ± 1.1 kg/m3; viscosity ([1]; 328.15 K, x1 = 1): 48.36 ± 2 mPa·s; mass density ([1]; 328.15 K, x1 = 1): 1125.5 ± 1.1 kg/m3; viscosity ([1]; 333.15 K, x1 = 1): 43.01 ± 1.8 mPa·s; mass density ([1]; 333.15 K, x1 = 1): 1122.14 ± 1.1 kg/m3; viscosity ([1]; 338.15 K, x1 = 1): 37.15 ± 1.6 mPa·s; mass density ([1]; 338.15 K, x1 = 1): 1118.8 ± 1.1 kg/m3
CC(C)CO [2-methyl-1-propanol] + CCCCCCn1cc[n+](C)c1.F[B-](F)(F)F																					viscosity ([1]; 293.15 K, x2 = 0): 4.085 ± 0.17 mPa·s; mass density ([1]; 293.15 K, x2 = 0): 801.75 ± 0.24 kg/m3; viscosity ([1]; 298.15 K, x2 = 0): 3.45 ± 0.14 mPa·s; mass density ([1]; 298.15 K, x2 = 0): 797.89 ± 0.24 kg/m3; viscosity ([1]; 303.15 K, x2 = 0): 2.877 ± 0.12 mPa·s; mass density ([1]; 303.15 K, x2 = 0): 793.99 ± 0.24 kg/m3; viscosity ([1]; 308.15 K, x2 = 0): 2.385 ± 0.098 mPa·s; mass density ([1]; 308.15 K, x2 = 0): 790.04 ± 0.24 kg/m3; viscosity ([1]; 313.15 K, x2 = 0): 2.091 ± 0.086 mPa·s; mass density ([1]; 313.15 K, x2 = 0): 786.04 ± 0.24 kg/m3; viscosity ([1]; 318.15 K, x2 = 0): 1.85 ± 0.076 mPa·s; mass density ([1]; 318.15 K, x2 = 0): 781.98 ± 0.24 kg/m3; viscosity ([1]; 323.15 K, x2 = 0): 1.576 ± 0.065 mPa·s; mass density ([1]; 323.15 K, x2 = 0): 777.85 ± 0.24 kg/m3; viscosity ([1]; 328.15 K, x2 = 0): 1.297 ± 0.053 mPa·s; mass density ([1]; 328.15 K, x2 = 0): 773.65 ± 0.24 kg/m3; viscosity ([1]; 333.15 K, x2 = 0): 1.124 ± 0.046 mPa·s; mass density ([1]; 333.15 K, x2 = 0): 769.36 ± 0.24 kg/m3; viscosity ([1]; 338.15 K, x2 = 0): 0.9876 ± 0.041 mPa·s; mass density ([1]; 338.15 K, x2 = 0): 764.99 ± 0.24 kg/m3
CCCCCCn1cc[n+](C)c1.F[B-](F)(F)F [1-hexyl-3-methylimidazolium tetrafluoroborate]	234.68 ± 11 mPa·s	1149.05 ± 1.2 kg/m3	178.92 ± 8.4 mPa·s	1145.61 ± 1.1 kg/m3	136.15 ± 6.2 mPa·s	1142.3 ± 1.1 kg/m3	106.65 ± 4.7 mPa·s	1138.95 ± 1.1 kg/m3	83.13 ± 3.6 mPa·s	1135.59 ± 1.1 kg/m3	69.13 ± 2.9 mPa·s	1132.22 ± 1.1 kg/m3	56.74 ± 2.4 mPa·s	1128.88 ± 1.1 kg/m3	48.36 ± 2 mPa·s	1125.5 ± 1.1 kg/m3	43.01 ± 1.8 mPa·s	1122.14 ± 1.1 kg/m3	37.15 ± 1.6 mPa·s	1118.8 ± 1.1 kg/m3	
CC(C)CO [2-methyl-1-propanol]	4.085 ± 0.17 mPa·s	801.75 ± 0.24 kg/m3	3.45 ± 0.14 mPa·s	797.89 ± 0.24 kg/m3	2.877 ± 0.12 mPa·s	793.99 ± 0.24 kg/m3	2.385 ± 0.098 mPa·s	790.04 ± 0.24 kg/m3	2.091 ± 0.086 mPa·s	786.04 ± 0.24 kg/m3	1.85 ± 0.076 mPa·s	781.98 ± 0.24 kg/m3	1.576 ± 0.065 mPa·s	777.85 ± 0.24 kg/m3	1.297 ± 0.053 mPa·s	773.65 ± 0.24 kg/m3	1.124 ± 0.046 mPa·s	769.36 ± 0.24 kg/m3	0.9876 ± 0.041 mPa·s	764.99 ± 0.24 kg/m3	
NCCCO [3-amino-1-propanol]	39.29 ± 1.6 mPa·s	987.55 ± 0.23 kg/m3	30.43 ± 1.3 mPa·s	983.55 ± 0.23 kg/m3	23.87 ± 0.99 mPa·s	979.53 ± 0.23 kg/m3	19.07 ± 0.79 mPa·s	975.51 ± 0.23 kg/m3	15.27 ± 0.63 mPa·s	971.47 ± 0.23 kg/m3	12.35 ± 0.51 mPa·s	967.43 ± 0.23 kg/m3	10.22 ± 0.42 mPa·s	963.37 ± 0.23 kg/m3	8.535 ± 0.35 mPa·s	959.3 ± 0.23 kg/m3	7.123 ± 0.29 mPa·s	955.22 ± 0.23 kg/m3	6.045 ± 0.25 mPa·s	951.14 ± 0.23 kg/m3	
